Reference: patent US11021435B2, “Serotonin receptor-targeting compounds and methods” (priority 2014, dated 2021)
Entries after “also recorded” stand apart in the source; their conditions may differ.

Legend:
[1] = biological target: T1, human 5-HT7 receptors (5-HT7a) (Homo sapiens, UniProt P34969); assay: Radioligand competition binding ([3H]5-CT), HEK293 cells stably expressing human 5-HT7 receptors; details: Affinity Ki 5-HT7, our unreported observations
T1 construct: expressed in transfected cells
Excerpt: FIGS. 4A-4C show the effects of 5-FPT are stereospecific. […] Data are expressed as the mean±SEM.

5-HT2A [2] = biological target: T2, 5-HT2A (Homo sapiens, UniProt P28223); assay: Radioreceptor competitive binding, [3H]ketanserin (4-PAT series); details: 2.0 nM [3H]ketanserin; HCl salts; read-out: Affinity (Ki ± SEM) 5-HT2A
Method: (§1) Radioreceptor competitive binding assays were carried out to assess the binding affinities of the compounds of the invention. Radioligand competitive displacement binding assays were performed in 96-well plates, using 3-5 μg of protein from membrane samples per well. Each concentration point in the binding experiments was performed in triplicates of samples, and each experiment was performed a minimum of three times. […] Non-specific binding was determined in the presence of or 10 μM mianserin for all three 5-HT2 receptors or 10 μM triprolidine for H1 receptors. Radioreceptor binding assay mixtures were incubated for 1.0 hour at 37° C., with termination by rapid filtration through Whatman GF/B filters using a 96-well cell harvester (Tomtec, Hamden, Conn.), which were subsequently washed five times with 50 mM Tris-HCl at room temperature. Filters containing bound [^3H]radioligand were dried, placed in vials containing 2 mL scintillation cocktail (ScintiVerse), allowed to equilibrate overnight, and then were counted for ^3H-induced scintillation using a Beckman-Coulter LS6500 counter.
(§2) Competition binding data were analyzed using nonlinear regression curve-fitting algorithms in GraphPad Prism, 6 for Windows (San Diego, Calif.). […] Ligand affinity was expressed as an approximation of Ki values by conversion of the IC50 value using the Cheng-Prusoff equation […] where L was the concentration of radioligand.

H1 = H1 (Homo sapiens, UniProt P35367); assay: Radioreceptor competitive binding, [3H]mepyramine (4-PAT series); details: for Ki: 1.0 nM [3H]mepyramine, read-out: Affinity (Ki ± SEM) H1
Method: as §1, §2

5-HT2C [3] = biological target: T3, 5-HT2C (Homo sapiens, UniProt P28335); assay: Radioreceptor competitive binding, [3H]mesulergine (4-PAT series); details: read-out: Affinity (Ki ± SEM) 5-HT2C
T3 sequence (P28335 33-458): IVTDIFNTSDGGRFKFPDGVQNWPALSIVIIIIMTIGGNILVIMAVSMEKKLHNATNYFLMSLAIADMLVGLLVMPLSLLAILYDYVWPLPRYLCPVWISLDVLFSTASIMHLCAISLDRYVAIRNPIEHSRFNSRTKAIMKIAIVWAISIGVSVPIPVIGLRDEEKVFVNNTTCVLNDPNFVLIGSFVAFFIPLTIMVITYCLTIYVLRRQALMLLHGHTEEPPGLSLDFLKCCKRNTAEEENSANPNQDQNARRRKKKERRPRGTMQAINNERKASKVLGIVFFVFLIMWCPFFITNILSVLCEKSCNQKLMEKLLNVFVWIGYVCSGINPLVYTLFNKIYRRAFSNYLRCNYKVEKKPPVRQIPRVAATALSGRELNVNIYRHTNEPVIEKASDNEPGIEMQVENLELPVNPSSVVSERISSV
Method: as §1, §2

5-HT2B [4] = biological target: T4, 5-HT2B (Homo sapiens, UniProt P41595); assay: as above; details: 1.95 nM [3H]mesulergine; read-out: Affinity (Ki ± SEM) 5-HT2B
Method: as §1, §2

5-HT2A [5] = biological target: T2, 5-HT2A; assay: Receptor-mediated inositol phosphate hydrolysis, transfected HEK293 cells; type: cell-based; design: expressed in transfected cells; host or cells: HEK293, transient; details: concentrations up to 10 μM
Method: (§3) Functional responses of analog 7l and 5-HT (positive control agonist, data not shown) by measuring 5-HT2 and H1 receptor-mediated inositol phosphate hydrolysis were assessed. In brief, transiently transfected HEK293 cells were labeled with 1 μCi/ml [3H]myoinositol and seeded into 48-well plates. Cells were treated with test compounds for 30 minutes. The reaction was stopped by addition of 50 mM formic acid. Anion-exchange columns (Bio-Rad Laboratories, Hercules, Calif.) were used to bind and collect [3H]inositol phosphates. 3H-induced scintillations then were measured. Each experiment included a minimum of triplicate measurements for each concentration of test compound, and each experiment was performed a minimum of three times.

5-HT2B [6] = biological target: T4, 5-HT2B; assay: as above; type: cell-based; design: expressed in transfected cells; host or cells: HEK293, transient
Method: as §3

5-HT2C [7] = biological target: T3, 5-HT2C; assay: as above; type: cell-based; design: expressed in transfected cells; host or cells: HEK293, transient
Method: as §3, with “In” for “Functional responses of analog 7l and 5-HT (positive control agonist, data not shown) by measuring 5-HT2 and H1 receptor-mediated inositol phosphate hydrolysis were assessed. In”

histamine H1 receptor = biological target: T5, histamine H1 receptor (Homo sapiens, UniProt P35367); assay: as above; type: cell-based
T5 construct: expressed in transfected cells; host or cells: HEK293, transient
Method: as §3

C57BI/6J mice = assay: DOI-elicited head-twitch response (HTR) in C57BI/6J mice
Excerpt: The 5-HT2A receptor is a predominant 5-HT receptor in the cortex, and serves important excitation modulation functions on glutamate pyramidal and GABA neurons.

5-HT2A [8] = biological target: T2, 5-HT2A; design: expressed in transfected cells; host or cells: HEK293, transient; details: cited from earlier work
5-HT2B [9] = biological target: T4, 5-HT2B; design: expressed in transfected cells; host or cells: HEK293, transient; details: cited from earlier work

Sequence of H1 (P35367 whole entry): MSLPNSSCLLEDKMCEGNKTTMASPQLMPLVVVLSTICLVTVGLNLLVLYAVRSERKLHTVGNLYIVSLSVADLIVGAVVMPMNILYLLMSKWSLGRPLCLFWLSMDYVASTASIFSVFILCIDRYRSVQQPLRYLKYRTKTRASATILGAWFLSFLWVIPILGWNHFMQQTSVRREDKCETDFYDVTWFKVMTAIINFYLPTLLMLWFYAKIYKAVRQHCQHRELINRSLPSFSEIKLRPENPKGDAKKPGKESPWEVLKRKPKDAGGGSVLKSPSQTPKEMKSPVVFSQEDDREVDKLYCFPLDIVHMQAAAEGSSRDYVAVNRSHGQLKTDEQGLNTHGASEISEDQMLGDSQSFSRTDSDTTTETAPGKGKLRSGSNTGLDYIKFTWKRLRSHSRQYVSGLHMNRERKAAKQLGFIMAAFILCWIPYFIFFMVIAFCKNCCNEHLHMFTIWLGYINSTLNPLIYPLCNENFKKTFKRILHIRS
T4 sequence (P41595 whole entry): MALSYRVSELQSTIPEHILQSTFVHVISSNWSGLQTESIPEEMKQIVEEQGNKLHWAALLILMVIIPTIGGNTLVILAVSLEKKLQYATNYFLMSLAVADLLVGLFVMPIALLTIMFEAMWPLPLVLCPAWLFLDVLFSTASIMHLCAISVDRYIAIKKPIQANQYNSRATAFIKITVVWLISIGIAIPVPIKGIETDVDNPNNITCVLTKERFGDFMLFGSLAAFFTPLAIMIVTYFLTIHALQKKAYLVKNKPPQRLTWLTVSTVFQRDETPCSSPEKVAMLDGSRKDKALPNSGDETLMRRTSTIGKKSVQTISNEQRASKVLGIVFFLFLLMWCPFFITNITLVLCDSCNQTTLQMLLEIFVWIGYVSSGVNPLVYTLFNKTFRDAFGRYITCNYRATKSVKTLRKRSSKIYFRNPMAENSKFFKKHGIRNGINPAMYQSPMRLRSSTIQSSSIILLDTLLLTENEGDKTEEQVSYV
T2 sequence (P28223 whole entry): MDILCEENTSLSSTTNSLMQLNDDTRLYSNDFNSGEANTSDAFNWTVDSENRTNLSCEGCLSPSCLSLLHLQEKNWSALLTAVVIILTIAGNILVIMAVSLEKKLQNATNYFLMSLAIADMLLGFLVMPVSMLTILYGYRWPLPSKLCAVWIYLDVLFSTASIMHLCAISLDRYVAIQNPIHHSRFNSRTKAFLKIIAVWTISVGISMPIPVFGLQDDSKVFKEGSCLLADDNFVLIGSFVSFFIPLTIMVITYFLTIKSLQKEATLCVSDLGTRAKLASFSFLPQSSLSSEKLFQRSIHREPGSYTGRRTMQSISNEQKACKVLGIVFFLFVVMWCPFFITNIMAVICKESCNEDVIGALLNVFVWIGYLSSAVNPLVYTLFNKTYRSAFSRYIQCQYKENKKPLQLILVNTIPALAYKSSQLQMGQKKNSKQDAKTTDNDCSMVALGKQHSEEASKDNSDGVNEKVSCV
T5 sequence (P35367 whole entry): as the sequence (P35367 whole entry) above
T1 sequence (P34969 1-445 isoform P34969-2): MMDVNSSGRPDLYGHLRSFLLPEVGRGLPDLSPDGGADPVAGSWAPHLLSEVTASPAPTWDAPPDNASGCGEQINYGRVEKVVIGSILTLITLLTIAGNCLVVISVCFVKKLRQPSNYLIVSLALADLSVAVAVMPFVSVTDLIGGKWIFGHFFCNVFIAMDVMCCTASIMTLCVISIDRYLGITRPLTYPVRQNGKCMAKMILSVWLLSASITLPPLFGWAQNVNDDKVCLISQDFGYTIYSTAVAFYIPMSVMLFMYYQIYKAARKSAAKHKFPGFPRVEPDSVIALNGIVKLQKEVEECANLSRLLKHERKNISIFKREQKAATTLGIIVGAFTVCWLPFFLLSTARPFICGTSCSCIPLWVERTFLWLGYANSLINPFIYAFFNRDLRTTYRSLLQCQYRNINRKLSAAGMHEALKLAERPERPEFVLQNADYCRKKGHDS

SMILES	Ki (5-HT2A [2])	Ki (H1)	Ki (5-HT2C [3])	Ki (5-HT2B [4])	other results
COc1cc(CC(C)N)c(OC)cc1I (racemic) [DOI, (±)-2,5-dimethoxy-4-iodoamphetamine, reference compound]	–	–	–	–	Ki [1]: > 1000 nM
COc1cc2c(cc1Cl)C[C@@H](N(C)C)C[C@@H]2c1ccccc1 (single isomer, unassigned)	160 ± 24 nM	1.2 ± 0.6 nM	24 ± 2.5 nM	17.3 ± 5.33 nM	–
COc1cc2c(cc1Cl)C[C@@H](N(C)C)C[C@H]2c1ccccc1 (single isomer, unassigned) [Compound 7c, Cis-4-Phenyl-6-methoxy-7-chloro-N,N-dimethyl-1,2,3,4-tetrahydronaphthalen-2-amine]	2300 nM	> 1000 nM	1600 nM	2500 nM	Lower H1 receptor affinity than (+)-cis-PAT 1c analog (H1): about 10 fold
COc1cc2c(cc1Cl)C[C@@H](N(C)C)C[C@H]2c1ccccc1 (single isomer, unassigned) [Compound 7d, Cis-4-Phenyl-6-methoxy-7-chloro-N,N-dimethyl-1,2,3,4-tetrahydronaphthalen-2-amine]	320 ± 42 nM	10.8 ± 0.6 nM	96 ± 18 nM	43 ± 5 nM	–
COc1cc2c(cc1Cl)CC(N(C)C)CC2c1cccc(Cl)c1 (single isomer, unassigned) [Compound 7f]	50 ± 20 nM	18.9 ± 0.7 nM	9 ± 2 nM	56 nM	–
COc1cc2c(cc1Cl)C[C@@H](N(C)C)C[C@@H]2c1cccc(Br)c1 (single isomer, unassigned) [Compound 7i, Trans-4-(3′-Bromophenyl)-6-methoxy-7-chloro-N,N-dimethyl-1,2,3,4-tetrahydronaphthalen-2-amine]	79 ± 14 nM	650 ± 21 nM	350 ± 130 nM	169 ± 27 nM	–
COc1cc2c(cc1Cl)C[C@@H](N(C)C)C[C@@H]2c1cccc(Br)c1 (single isomer, unassigned) [Compound 7j, Trans-4-(3′-Bromophenyl)-6-methoxy-7-chloro-N,N-dimethyl-1,2,3,4-tetrahydronaphthalen-2-amine]	61 ± 15 nM	230 ± 33 nM	130 ± 43 nM	50 nM	–
COc1ccc2c(c1)[C@@H](c1cccc(Cl)c1)C[C@H](N(C)C)C2 (single isomer, unassigned) [Compound 7k, Trans-4-(3′-Chlorophenyl)-6-methoxy-N,N-dimethyl-1,2,3,4-tetrahydronaphthalen-2-amine]	350 ± 16 nM	740 ± 80 nM	280 ± 30 nM	310 ± 41 nM	–
COc1ccc2c(c1)[C@@H](c1cccc(Cl)c1)C[C@H](N(C)C)C2 (single isomer, unassigned) [Compound 7l, Trans-4-(3′-Chlorophenyl)-6-methoxy-N,N-dimethyl-1,2,3,4-tetrahydronaphthalen-2-amine]	35 ± 3 nM	86 ± 18 nM	17 ± 1 nM	65 nM	Function 5-HT2A (activation) (5-HT2A [5]): did not activate; Function 5-HT2A (activation) (5-HT2A [5]; listed as 71): No; Efficacy 5-HT2B, Imax (5-HT2B [6]; inverse agonist): Imax = −17 ± 4.6%; IC50 (5-HT2B [6]; mean ± S.E.M.): 51 nM; Emax (5-HT2C [7]; HEK293, read-out: Efficacy 5-HT2C, EMAX): 73 ± 6%; EC50 (5-HT2C [7]; read-out: Function 5-HT2C, EC50 (agonist potency)): 19 ± 1 nM; Efficacy H1, Imax (histamine H1 receptor; inverse agonist): −25 ± 1.5%; IC50 (histamine H1 receptor; mean ± S.E.M.): 48 nM; Reduced affinity at H1 receptors compared to unsubstituted PAT (7b) (H1): > 40 fold
CN(C)[C@@H]1Cc2cc(Cl)c(O)cc2[C@@H](c2ccccc2)C1 (single isomer, unassigned) [Compound 7m, Trans-4-Phenyl-6-hydroxy-7-chloro-N,N-dimethyl-1,2,3,4-tetrahydronaphthalen-2-amine]	70 ± 2.6 nM	109 ± 17 nM	1000 nM	1200 nM	–
CN(C)[C@@H]1Cc2cc(Cl)c(O)cc2[C@@H](c2ccccc2)C1 (single isomer, unassigned) [Compound 7n, Trans-4-Phenyl-6-hydroxy-7-chloro-N,N-dimethyl-1,2,3,4-tetrahydronaphthalen-2-amine]	60 ± 5.4 nM	3 ± 1 nM	23 ± 3 nM	91 nM	–
Cc1nn(C)c(C)c1-c1cccc2c1CC[C@H](N(C)C)C2 [AS-19, reference compound]	–	–	–	–	DOI-elicited HTR (C57BI/6J mice; C57BI/6J mice, DOI 1 mg/kg, 5-FPT up to 5.6 mg/kg, AS-19 10 mg/kg, DPAT 0.5 mg/kg): suppressed the DOI HTR; also recorded: attenuated the HTR; Locomotor behavior and serotonin syndrome seen in the DOI HTR assay (C57BI/6J mice; data not shown): neither (−)-DPAT, a 5-HT1A partial agonist, nor AS-19 affected locomotor behavior or caused obvious serotonin syndrome
C[C@H](N)Cn1ccc2cc(F)c(Cl)cc21 [Ro60-0175]	–	–	–	–	Activation of 5-HT2A receptors by reported selective 5-HT2C agonists (5-HT2A [8]): also activate; Activation of 5-HT2B receptors by reported selective 5-HT2C agonists (5-HT2B [9]): also activate
C[C@H]1CNCCc2ccc(Cl)cc21 [lorcaserin]	–	–	–	–	Activation of 5-HT2A receptors by reported selective 5-HT2C agonists (5-HT2A [8]): also activate; Activation of 5-HT2B receptors by reported selective 5-HT2C agonists (5-HT2B [9]): also activate
